Patent US8212007B2, “Expression and purification of HIP/PAP and uses therefor” (priority 2007, dated 2012)

Assays:
[1] = test system: intestinal bacteria recovered from conventional mouse small intestine; assay: Flow cytometry binding to intestinal bacteria; conditions: 30 μM conjugate, 40 minutes on ice, formaldehyde-fixed bacteria
Listeria monocytogenes = assay: Bactericidal activity after N-terminal cleavage with trypsin; assay type: cell-based; conditions: 5 μM protein, 2 hours at 37° C., L. monocytogenes
Method: Eleven amino acids were truncated from the N-terminus HIP/PAP resulting in increase bactericidal activity.
Purified recombinant HIP/PAP was cleaved by the addition of bovine trypsin (Sigma) in a 1:200 molar ratio (trypsin:HIP/PAP). After 2 hours incubation at 37° C., 5 μM trypsin-treated HIP/PAP or uncleaved recombinant HIP/PAP was added to Listeria monocytogenes that had been grown to mid-log phase in brain-heart infusion (BHI) broth and resuspended in 25 mM MES pH 6, 25 mM NaCl. Initial bacterial concentrations ranged from 10^5 to 10^6 CFU/ml. After incubation for 2 hours at 37° C., viable bacteria were quantitated by dilution plating on BHI agar plates.

Row | Substance | binding of AlexaFluor555 conjugate to intestinal bacteria (flow cytometry) [1] | bactericidal activity with or without N-terminal truncation (11 amino acids) (Listeria monocytogenes)
1 | BSA-AlexaFluor555: AlexaFluor555-labeled BSA, control for flow cytometry binding to intestinal bacteria | no binding | 
2 | trypsin-treated HIP/PAP: recombinant HIP/PAP cleaved with bovine trypsin, 11 amino acids removed from the N-terminus |  | increased bactericidal activity
